These results are taken from patent publication US20250352608A1, “POLYPEPTIDES HAVING ANTI-INFLAMMATORY EFFECTS AND USES THEREOF” (OneSkin, Inc., priority 2020, published 2025).

In data set [1] the test system is Primary fibroblasts from Progeria patients. Nature of the data set: Senescence in Progeria fibroblasts (LKGIL, WLKGI). The class given is cell-based, human. The note with it: 500 nM, 5 μM, 50 μM.
Data set [2] deals with human primary fibroblasts isolated from 3 healthy donors. Kind of data set: Etoposide-induced senescence. It is filed as cell-based. Particulars: etoposide 20 μM. The protocol: Cellular senescence may be caused by several different stimuli. In order to assess whether Peptide 14 was effective against UVB-induced and chemically-induced senescence, human primary fibroblasts isolated from 3 healthy donors were used. These cells were cultured in DMEM (Dulbecco's Modified Eagle's Medium) supplemented with 10% v.v. fetal bovine serum (FBS), and 1% v.v. of penicillin/streptomycin solution (1,000 U mL-1). Cells were kept in a 5% CO2, 37° C. and 95% humidity atmosphere. After expansion, these cells were seeded in 96-well plates (4,000 cells per well) and, 6 hours after plating, were submitted to either etoposide (20 μM) treatment for 24 hours, or exposed twice to 0.05 J/cm^2 of UVB radiation. […] After incubation, relative cellular senescence (assessed by the activity of senescence associated β-galactosidase staining relative to untreated control) was analyzed and plotted in column graphs. ATRX foci were also assessed following ATRX immunofluorescence staining. Graphs were built using the average ATRX foci detected per nuclei. […] Data was analyzed using with either t-test or ANOVA followed by a Bonferroni post-hoc test. Statistical significance was determined as p-values equal or lower than 0.05 (FIG. 6).

The subject of the next data set is HGPS HDFs. Kind of data set: PP2A modulators and senescence markers. The class given is cell-based, human. Particulars: 48 hs; for cellular senescence (SA-BGal+ cells): Okadaic Acid 5-7.5 nM or DT-061 7.5 μM. As for the experimental part:
Since PP2A has not been explored for cellular senescence modulation, whether the treatment of HGPS HDFs with a PP2A inhibitor (Okadaic acid—OA) and activator (DT-061) would result in the modulation of cellular senescence markers was assessed. HGPS HDFs were treated with 5-7.5 nM Okadaic Acid or 7.5 μM DT-061 for 48 hs. Some cells were treated with both 5 nM Okadaic Acid and 12.5 μM Peptide 14 for 48 hours. The senescence level was determined by SA β-galactosidase staining and normalized to total cell number.

In data set [3] the test system is peripheral blood mononuclear cells (PBMCs). Nature of the data set: PBMC mRNA of IFN-γ and IL-10 (RT-qPCR). The class given is cell-based, human. As for the experimental part: The effect of Peptide 14 on T cell activation was assessed by treating PBMCs stimulated with phytohaemagglutinin (PHA) with Peptide 14. PHA usually can trigger lymphocyte activation and cell division. PBMCs that were untreated with PHA or Peptide 14 served as negative control of lymphocyte activation. In the phytohaemagglutinin group, the PBMCs were activated with 5 μg/mL of PHA for 5 days. In the Peptide 14 and PHA group, the PBMCs were activated with 5 μg/mL of PHA and treated with 3.12 μM of Peptide 14 for 5 days. In the Peptide 14 group, the PBMCs were treated with 3.12 μM of Peptide 14 for 5 days. In the rapamycin group, the PBMCs were treated with 100 nM of rapamycin, a well-known immunosuppressive drug for 5 days. In the rapamycin+PHA group, the PBMCs were activated with 5 μg/mL of PHA and treated with 100 nM of rapamycin for 5 days. […] IFN-γ is typically produced in lymphocytes stimulated by PHA and may be used as marker of PBMC stimulation level. IL-10 is an anti-inflammatory cytokine. The cells from each of the experimental groups were processed for total RNA isolation, reverse transcription of the RNA and RT-qPCR. Data is represented as relative expression normalized to ubiquitous gene expression and untreated PBMC negative control.
A general note: Quantitative PCR measures a nucleic acid by following its amplification.

Data set [4] deals with ex vivo skin biopsies (donors). Nature of the data set: Topical application to ex vivo skin biopsies. It is filed as cell-based, human. Particulars: vs untreated. The text has this: Senescent cell accumulation in the skin has been related to facial wrinkling and perceived age. A formulation having a concentration of Peptide 14 in the formulation was adjusted (0.01% w/v) to support the skin penetration of the Peptide 14 of up to 2% into the dermis was applied to ex vivo skin biopsies (from donors). A topical retinol application group was used as an “anti-aging” control, due to its widespread and decades-long use in the field, along with a no treatment control group.

In data set [5] the test system is Primary fibroblasts from Progeria patients. Kind of data set: Senescence screen (SA B-galactosidase staining) of polypeptide library. The class given is cell-based, human. The note with it: 10 μM, 48 hours. As for the experimental part:
Primary fibroblasts isolated from Progeria patients can constitute a genetic model of early aging and cellular senescence in humans. Primary fibroblasts from Progeria patients were cultured in DMEM (Dulbecco's Modified Eagle's Medium) supplemented with 10% v.v. fetal bovine serum (FBS), and 1% v.v. of penicillin/streptomycin solution (1,000 U·mL-1). Cells were kept in a 5% CO2, 37° C. and 95% humidity atmosphere. After expansion, these cells were seeded in 96-well plates (1,000 cells per well) and, 6 hours after plating, were incubated with individual polypeptides from a proprietary library at 50 μM for 48 hours. Negative control comprised untreated cells, which received vehicle only; positive control group comprised cells incubated with 10 μM ABT-263, a senolytic compound for the same period. […] Three independent experiments including three technical replicates were performed.

Ends that are not written are not given here.

For the compound LKGIL [LKGIL], the “cellular toxicity (relative cell number)” value in data set [1] is listed as “No cellular toxicity”.
`COc1cc([C@@H]2c3cc4c(cc3[C@@H](O[C@@H]3O[C@@H]5CO[C@@H](C)O[C@H]5[C@H](O)[C@H]3O)[C@H]3COC(=O)[C@H]23)OCO4)cc(OC)c1O` [Etoposide, etoposide]: in data set [2] (24 hours), the “ATRX foci nuclear accumulation (average ATRX foci/cell)” value is reported as “significant increase”. The “cellular senescence level (SA β-galactosidase)” value in data set [2] (24 hours (senescence inducer)) is recorded as “significant increase”.
As for `O=S(=O)(N[C@@H]1CCC[C@H](N2c3ccccc3Oc3ccccc32)[C@H]1O)c1ccc(OC(F)(F)F)cc1` [DT-061], the “cellular senescence (SA-BGal+ cells)” value in the data set with HGPS HDFs is “SA-BGal+ cell reduction”.
Take `CO[C@H]1C[C@@H]2CC[C@@H](C)[C@@](O)(O2)C(=O)C(=O)N2CCCC[C@H]2C(=O)O[C@H]([C@H](C)C[C@@H]2CC[C@@H](O)[C@H](OC)C2)CC(=O)[C@H](C)/C=C(\C)[C@@H](O)[C@@H](OC)C(=O)[C@H](C)C[C@H](C)/C=C/C=C/C=C/1C` [rapamycin]: the “relative expression level of IL-10 (negative control = 1)” value in data set [3] (single agent, 5 days (Peptide 14 3.12 μM; rapamycin 100 nM; PHA 5 μg/mL)) is recorded as “about 2.5”; in data set [3] (with 5 μg/mL PHA, 5 days (Peptide 14 3.12 μM; rapamycin 100 nM)), “about 0.2”.
In the case of `CC1=C(/C=C/C(C)=C/C=C/C(C)=C/CO)C(C)(C)CCC1` [Retinol], in data set [4], the “B2M expression, dermis” value was “significantly decreased”; the “HAS2 expression, dermal samples” value is “increase”; the “IL8 level, epidermis” value is on record as “significantly increased”; the “Ki-67 expression, epidermis” value is on record as “significantly increased”. Also, in data set [4], the “P16 mRNA expression, dermis” value is reported as “significant increase”; the “P16 mRNA expression, epidermis” value was “significant increase”; the “dermal Ki67 expression” value was “significantly induced”; the “dermal collagen 1 expression” value is “significantly induced”. Further, in data set [4], the “keratin 1 expression, epidermis” value is reported as “significantly reduced” and the “keratin 14 expression, epidermis” value is “significantly reduced”.
In the case of `C=C1[C@@H](O)[C@@H]2O[C@]3(CC[C@H](/C=C/[C@@H](C)[C@@H]4CC(C)=C[C@@]5(O[C@H](C[C@@](C)(O)C(=O)O)CC[C@H]5O)O4)O3)CC[C@H]2O[C@@H]1[C@@H](O)C[C@H](C)[C@H]1O[C@@]2(CCCCO2)CC[C@H]1C` [OA, Okadaic acid], the “cellular senescence (SA-BGal+ cells)” value in the data set with HGPS HDFs is reported as “significant increase”. For the same compound, in the data set on HGPS HDFs (Okadaic Acid 5-7.5 nM), the CDKN1A expression result is reported as “significant increase”, the “CXCL1 (SASP marker) expression” value was “significant increase” and the “IL6 (SASP marker) expression” value is listed as “significant increase”.
On to `CC1(C)CCC(c2ccc(Cl)cc2)=C(CN2CCN(c3ccc(C(=O)NS(=O)(=O)c4ccc(N[C@H](CCN5CCOCC5)CSc5ccccc5)c(S(=O)(=O)C(F)(F)F)c4)cc3)CC2)C1` [ABT-263], for which, in data set [5], the “cellular toxicity (cell number)” value was “cellular toxicity”. Besides, in data set [5] (positive control), the “relative cellular senescence (SA B-galactosidase staining)” value is reported as “significant reduction of cellular senescence”.
Take WLKGI [WLKGI]: in data set [1], the “cellular toxicity (relative cell number)” value is recorded as “No cellular toxicity”.
